Values belong to the molecule of their own block, whether it stands above or below them. Calls of active or inactive are those of the source.
What was measured:
Bcl-2-related protein A1 = molecular target: T1, Bcl-2-related protein A1 (Mus musculus, UniProt Q07440); format: functional;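 further: confirmatory dose–response counterscreen on Bfl-1, used to check hits from a UBC13 polyubiquitin inhibitor campaign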
T1 sequence (Q07440 whole entry): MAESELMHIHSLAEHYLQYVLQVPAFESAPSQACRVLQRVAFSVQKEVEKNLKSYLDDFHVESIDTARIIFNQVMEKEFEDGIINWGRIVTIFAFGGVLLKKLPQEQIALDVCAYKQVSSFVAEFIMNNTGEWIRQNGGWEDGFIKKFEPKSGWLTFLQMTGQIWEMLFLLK

[1] = molecular target: T2, Ubiquitin-conjugating enzyme E2 N (Homo sapiens, UniProt P61088); format: functional
T2 sequence (P61088 whole entry): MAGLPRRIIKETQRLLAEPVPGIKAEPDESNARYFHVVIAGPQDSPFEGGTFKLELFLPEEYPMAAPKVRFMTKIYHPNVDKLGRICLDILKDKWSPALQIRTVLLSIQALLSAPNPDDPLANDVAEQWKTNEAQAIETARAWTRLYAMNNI

[2] = molecular target: T2, Ubiquitin-conjugating enzyme E2 N; format: functional; remark: listed apart in the source
[3] = enhancers of respiration in Yfh1-depleted yeast, dose response, Friedreich's ataxia, plus single-dose screen (AID 1465); format: functional;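 further: yeast depleted of Yfh1p frataxin homolog grown on glycerol needing respiration; WST-1 tetrazolium dye reduction as measure of cellular dehydrogenase metabolic activity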
Bcl-2-like protein 10 = molecular target: T3, Bcl-2-like protein 10 (Homo sapiens, UniProt Q9HD36); experiment: Biochemical TR3 FP assay of Bcl-B inhibitor potency, EC50 (AID 1243); format: functional
T3 sequence (Q9HD36 whole entry): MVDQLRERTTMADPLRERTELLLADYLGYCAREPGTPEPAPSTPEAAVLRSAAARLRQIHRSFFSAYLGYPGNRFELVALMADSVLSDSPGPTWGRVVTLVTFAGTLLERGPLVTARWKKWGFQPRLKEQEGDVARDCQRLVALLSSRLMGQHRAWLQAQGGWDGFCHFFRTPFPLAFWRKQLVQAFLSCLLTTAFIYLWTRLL

Hexokinase HKDC1 = molecular target: T4, Hexokinase HKDC1 (Homo sapiens, UniProt Q2TB90); experiment: HKDC1 hexokinase inhibitors, dose response, biochemical, W721R variant (AID 504729); format: functional
T4 sequence (Q2TB90 whole entry): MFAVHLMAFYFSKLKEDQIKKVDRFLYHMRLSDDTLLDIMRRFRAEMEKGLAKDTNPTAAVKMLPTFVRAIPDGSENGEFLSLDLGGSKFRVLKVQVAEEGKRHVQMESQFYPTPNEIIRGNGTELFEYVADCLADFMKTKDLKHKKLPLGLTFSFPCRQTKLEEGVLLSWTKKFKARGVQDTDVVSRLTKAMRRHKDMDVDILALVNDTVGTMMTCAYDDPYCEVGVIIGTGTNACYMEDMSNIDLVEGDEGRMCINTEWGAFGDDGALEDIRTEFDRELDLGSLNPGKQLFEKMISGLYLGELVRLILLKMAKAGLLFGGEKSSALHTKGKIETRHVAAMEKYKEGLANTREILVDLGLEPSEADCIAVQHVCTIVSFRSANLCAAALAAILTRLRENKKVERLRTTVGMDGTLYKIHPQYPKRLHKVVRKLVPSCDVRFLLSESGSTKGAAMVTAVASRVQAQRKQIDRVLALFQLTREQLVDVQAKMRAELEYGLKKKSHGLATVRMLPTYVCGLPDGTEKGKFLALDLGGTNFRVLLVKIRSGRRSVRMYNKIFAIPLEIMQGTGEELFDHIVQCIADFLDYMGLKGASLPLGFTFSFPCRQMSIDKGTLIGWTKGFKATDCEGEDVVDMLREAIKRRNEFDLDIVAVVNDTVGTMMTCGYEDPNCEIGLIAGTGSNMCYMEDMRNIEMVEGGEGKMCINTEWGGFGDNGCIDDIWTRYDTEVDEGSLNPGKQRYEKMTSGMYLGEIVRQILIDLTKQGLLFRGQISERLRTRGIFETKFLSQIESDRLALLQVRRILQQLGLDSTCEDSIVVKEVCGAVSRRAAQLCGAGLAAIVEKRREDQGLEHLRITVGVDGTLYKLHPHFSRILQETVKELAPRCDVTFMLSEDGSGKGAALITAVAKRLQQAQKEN

[4] = molecular target: Heat shock protein HSP 90-alpha (Homo sapiens, UniProt P07900); format: functional, organism-based
[5] = C. albicans growth with fluconazole, confirmation, fluorescence, retest (AID 2467); format: functional, cell-based
Bcl-2-like protein 1 = Bcl-2-like protein 1 (Homo sapiens, UniProt Q07817); experiment: BCL-XL inhibitors, dose response, selectivity assay for MCL1 inhibitor project, biochemical, fluorescence polarization, 1536-well (AID 2218)
Chain of Bcl-2-like protein 1 (Q07817 whole entry): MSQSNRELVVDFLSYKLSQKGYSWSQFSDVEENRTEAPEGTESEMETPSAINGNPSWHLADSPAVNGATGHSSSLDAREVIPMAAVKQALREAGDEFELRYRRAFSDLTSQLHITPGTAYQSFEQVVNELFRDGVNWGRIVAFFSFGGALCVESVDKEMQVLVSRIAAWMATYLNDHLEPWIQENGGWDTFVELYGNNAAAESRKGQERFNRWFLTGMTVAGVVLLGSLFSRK

[6] = NIH-3T3 fibroblast cytotoxicity, dose response, cytotoxicity control, cell-based, fluorescence, Alamar Blue, secondary assay (AID 2327); format: functional;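 further: NIH-3T3 mouse fibroblasts cultured with fluconazole at 8 µg/mL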
[7] = molecular target: Induced myeloid leukemia cell differentiation protein Mcl-1 (Homo sapiens, UniProt Q07820); experiment: MCL1-BIM BH3 interaction inhibitors, dose response, biochemical, fluorescence polarization, BIM-BH3 peptide, 1536-well (AID 2217)
Chain of Induced myeloid leukemia cell differentiation protein Mcl-1 (Q07820 whole entry): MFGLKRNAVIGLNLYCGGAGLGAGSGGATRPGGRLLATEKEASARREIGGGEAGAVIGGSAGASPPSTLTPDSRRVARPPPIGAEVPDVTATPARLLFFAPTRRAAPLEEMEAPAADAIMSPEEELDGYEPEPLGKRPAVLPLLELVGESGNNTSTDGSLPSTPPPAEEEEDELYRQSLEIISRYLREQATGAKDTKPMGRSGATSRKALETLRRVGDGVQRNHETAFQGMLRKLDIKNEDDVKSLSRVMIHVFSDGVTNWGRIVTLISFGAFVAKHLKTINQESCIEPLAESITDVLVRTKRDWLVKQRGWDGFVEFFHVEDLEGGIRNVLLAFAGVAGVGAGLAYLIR

[8] = non-specific cell cytotoxicity, dose response, cytotoxicity control for PAX8 inhibitor project, plate reader, dry powder samples (AID 743021); format: functional, cell-based
[9] = Luminescent dose response cell-based high throughput screening assay for inhibitors of the Janus kinase 2 mutant JAK2V617F. [Related pubchem assays: 1446 (Primary screen.), 1521 (Confirmation assay.), 1486 (Counter screen.)]; format: functional
Paired box protein Pax-8 = Paired box protein Pax-8 (Homo sapiens, UniProt Q06710); experiment: inhibitors of PAX8-driven TPO luciferase reporter, dose response, RMG-I cells, cherry-pick (AID 687027); format: functional, cell-based;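 further: luciferase reporter driven by Pax8 target thyroperoxidase promoter measured by SteadyGlo luminescence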
Chain of Paired box protein Pax-8 (Q06710 whole entry): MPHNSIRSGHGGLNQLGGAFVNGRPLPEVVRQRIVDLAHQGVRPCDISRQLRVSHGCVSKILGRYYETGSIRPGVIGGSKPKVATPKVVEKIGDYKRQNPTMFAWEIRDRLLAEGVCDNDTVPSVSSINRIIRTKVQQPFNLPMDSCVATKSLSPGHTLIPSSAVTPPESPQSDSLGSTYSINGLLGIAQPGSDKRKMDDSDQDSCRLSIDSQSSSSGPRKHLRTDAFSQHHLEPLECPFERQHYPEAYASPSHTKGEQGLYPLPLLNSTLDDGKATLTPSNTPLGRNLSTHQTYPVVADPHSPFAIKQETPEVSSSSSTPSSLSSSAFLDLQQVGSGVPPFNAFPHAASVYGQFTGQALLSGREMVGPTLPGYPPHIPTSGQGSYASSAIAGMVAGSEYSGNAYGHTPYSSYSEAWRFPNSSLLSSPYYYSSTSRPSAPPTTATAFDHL

IC50 (Bcl-2-related protein A1): > 20 µM (inactive)
IC50 [1]: 18.3 µM (active)
IC50 [2]: 18.1 µM (active)
SMILES: COc1ccc(C(=O)NC(=S)NNC(=O)c2ccc(NC(C)=O)cc2)cc1Br
EC50 [3]: > 100 µM (active)

EC50 (Bcl-2-like protein 10): 13.2 µM (active)
SMILES: CCOc1ccc(/C=C(/NC(=O)c2ccc(C)cc2)C(=O)NCCO)cc1

SMILES: Cc1ccc(/N=C/c2cc(Cc3ccccc3Cl)cc([N+](=O)[O-])c2O)c(O)c1
IC50 (Hexokinase HKDC1): 28.5 µM (inactive)
AC50 [4]: 1.61 µM (active)
EC50 [5]: 1.78 µM (active)
IC50 (Bcl-2-like protein 1): 7.22 µM (active)
EC50 [6]: 11.3 µM (active)
IC50 [7]: 9.13 µM (active)

SMILES: O=C(CCl)/N=c1\sccn1Cc1cccc2ccccc12
AC50 [8]: 1.66 µM (active)
IC50 [9]: 0.224 µM (active)
AC50 (Paired box protein Pax-8): 0.572 µM (active)

— ChEMBL document CHEMBL1201862, “PubChem BioAssay data set” (2004)
